Data as given in patent US6841661B2, “Glycopeptide antibacterial compounds, compositions containing same and methods of using same” (Princeton Univerisity, priority 1999, dated 2005).

Key:
[1] = test system: E. faecium CL 5053 (VanA); test: microbe, parasite or virus in culture; assay type: cell-based; parameters: CL5053 (in vitro testing): unit not given here; settings: Tables 7 and 8; unit not given
From the text: (§1) National Committee for Clinical Laboratory Standards (NCCLS) guidelines [Methods for Dilution Antimicrobial Susceptibility Tests for Bacteria that Grow Aerobically-Fourth Edition; Approved Standard (NCCLS Document M7-A4, January 1997)] are used to establish the assay, although variations are made to optimize the published method according to the specific needs of the present investigation.
(§2) The test panel currently includes eight enterococci and 13 staphylococci, which are selected based upon their antibiotic susceptibility profiles. The methicillin-sensitive Staphylococcus aureus (MSSA) strain MB2985 (Smith isolate) is used to assesses the potential for serum protein binding of the compounds. The paired Gram-negative strains ASP #49 (envA-) and ASP #50 (envA+) (M. Salvatore/N. Lee) are included to judge membrane effects. Table 3 presents a detailed description of the strains included in the panel, including some of the sources of the strains of bacteria.
(§3) The glycopeptide antibiotic teicoplanin is included whenever possible.
(§4) TSB, containing 10% HS* for vancomycin intermediate S. aurcus/methicillin-resistant S. aureus (VISA/MRSA) strains, is inoculated from an appropriate source (frozen broth or agar slant) and grown approximately 17 hr at 35° C. with shaking at 220 rpm. Cultures are grown in tubes with a volume of 5 ml for enterococci and 2 ml for all other strains.
(§5) Four milliliter (4 ml) overnight culture is added to 36 ml physiological saline to obtain tenfold dilutions (enterococci). Overnight culture (0.4 ml) is added to 39.6 ml saline to obtain 100-fold dilutions (all strains except enterococci). Diluted cultures are maintained on ice until time of inoculation of test plates.
(§6) The number of CFU/mL is determined on BHI agar plates, although this is not done routinely because titers of overnight cultures are relatively constant. The test media include: • BHI for enterococci and VISA/MRSA; • MH II (i.e., cation-adjusted Mueller-Hinton broth) for MRS, MSS and E. coli.; • MH II+HSA for MSSA is prepared as follows: • a. 2×MHII+86mg/ml HSA • b. Dissolve 4.3 g HSA in 50 ml autoclaved 2x MH II. • c. pH to 7.0 by adding 2M MOPS, sodium. • d. Filter sterilize using 0.22 μm Coming cellulose acetate filter, used because of reported low protein binding. • e. 1×MH II+43 mg/ml HSA • f. Dilute the 2×medium twofold and filter as above. 5.8.6. Preparation of Test Plates
(§7) Using a Denley liquid handling system (or similar automatic device), 100 μ1×medium is added to each well in columns 2-12 of a 96-well microtiter dish. Using a multichannel pipettor, 100 μl 2×medium is added to each well in column 1. Plates may be filled on the day prior to assay, wrapped in plastic bags and refrigerated.
(§8) Vancomycin, Schering 29482, and teicoplanin are prepared on a weight per volume basis using 10 mM 3-(N-morpholino)propane-sulfonic acid (MOPS) buffer pH 7. Test compounds are received in solution in appropriate solvent (typically as 1 mg/ml in DMSO) or are dissolved in appropriate solvent prior to further dilution in 10 mM MOPS buffer, ph7. Consistent with NCCLS guidelines, antibiotics are handled aseptically but are not otherwise sterilized.
(§9) 100 μl appropriately diluted antibiotic solution is added to the first well of the designated row of the 96-well microtiter dish and serially diluted by twofold across the row using the Denley liquid handling system. With the aid of a Dynatech NEC 2000 inoculator, each well of the microtiter dish is inoculated with 1.5 μl diluted overnight culture, yielding approximately 1-5×10^6 CFU/ml for enterococci and approximately 3-7×10^5 CFU/ml for all other strains. Dishes are placed in stacks of no more than five, wrapped in plastic bags and incubated at 35° C. • Indication of result(s) type (% INH, IC50, Zone size, etc.) • MIC=minimum inhibitory concentration ps 5.8.9. Interpretation of the Results on the Basis of Activity […]

[2] = test system: E. faecalis CL 4877 (VanB); test: microbe, parasite or virus in culture; assay type: cell-based; parameters: CL4877 (in vitro testing): unit not given here; settings: Tables 7 and 8; unit not given
From the text: as §1, §2, §3, §4, §5, §6, §7, §8, §9

[3] = test system: CL 4931, CL 5053, CL 5242 and CL 4877; assay type: cell-based, E. faecium, E. faecalis; parameters: unit not given here; settings: mean of CL4931, CL5053, CL5242, CL4877; unit not given
From the text: as §1, §2, §3, §4, §5, §6, §7, §8, §9

[4] = test system: E. faecium CL 4931 (VanA); test: microbe, parasite or virus in culture; assay type: cell-based; parameters: CL4931 (in vitro testing): unit not given here; settings: Tables 7 and 8; unit not given
From the text: as §1, §2, §3, §4, §5, §6, §7, §8, §9

[5] = test system: E. faecium CL 5242 (VanA); test: microbe, parasite or virus in culture; assay type: cell-based; parameters: CL5242 (in vitro testing): unit not given here; settings: Tables 7 and 8; unit not given
From the text: as §1, §2, §3, §4, §5, §6, §7, §8, §9

SMILES | CL5053 (in vitro testing) [1] | CL4877 (in vitro testing) [2] | Mean [3] | CL4931 (in vitro testing) [4] | CL5242 (in vitro testing) [5]
CNC(CC(C)C)C(=O)NC1C(=O)NC(CC(N)=O)C(=O)NC2C(=O)NC3C(=O)NC(C(=O)NC(C(=O)O)c4cc(O)cc(O)c4-c4cc3ccc4O)C(O)c3ccc(c(Cl)c3)Oc3cc2cc(c3OC2OC(CNCCO)C(O)C(O)C2OC2CC(C)(NCc3ccc(OCc4ccc(Cl)c(Cl)c4)cc3)C(O)C(C)O2)Oc2ccc(cc2Cl)C1O (centres unmarked) [Compound 146] | 8 | 0.5 | 4.4 | 8 | 1
CNCC1OC(Oc2c3cc4cc2Oc2ccc(cc2Cl)C(O)C2NC(=O)C(NC(=O)C4NC(=O)C(CC(N)=O)NC(=O)C(NC(=O)C(CC(C)C)NC)C(O)c4ccc(c(Cl)c4)O3)c3ccc(O)c(c3)-c3c(O)cc(O)cc3C(C(=O)O)NC2=O)C(OC2CC(C)(NCc3ccc(OCc4ccc(Cl)c(Cl)c4)cc3)C(O)C(C)O2)C(O)C1O (centres unmarked) [Compound 147] | 8 | 4 | 4.5 | 4 | 2
CCCNCC1OC(Oc2c3cc4cc2Oc2ccc(cc2Cl)C(O)C2NC(=O)C(NC(=O)C4NC(=O)C(CC(N)=O)NC(=O)C(NC(=O)C(CC(C)C)NC)C(O)c4ccc(c(Cl)c4)O3)c3ccc(O)c(c3)-c3c(O)cc(O)cc3C(C(=O)O)NC2=O)C(OC2CC(C)(NCc3ccc(OCc4ccc(Cl)c(Cl)c4)cc3)C(O)C(C)O2)C(O)C1O (centres unmarked) [Compound 148] | 8 | 1 | 4.5 | 8 | 1
CNC(CC(C)C)C(=O)NC1C(=O)NC(CC(N)=O)C(=O)NC2C(=O)NC3C(=O)NC(C(=O)NC(C(=O)O)c4cc(O)cc(O)c4-c4cc3ccc4O)C(O)c3ccc(c(Cl)c3)Oc3cc2cc(c3OC2OC(CNCc3ccc(Cl)cc3)C(O)C(O)C2OC2CC(C)(NCc3ccc(OCc4ccc(Cl)c(Cl)c4)cc3)C(O)C(C)O2)Oc2ccc(cc2Cl)C1O (centres unmarked) [Compound 149] | 8 | 0.25 | 4.6 | 8 | 2
C=CCNCC1OC(Oc2c3cc4cc2Oc2ccc(cc2Cl)C(O)C2NC(=O)C(NC(=O)C4NC(=O)C(CC(N)=O)NC(=O)C(NC(=O)C(CC(C)C)NC)C(O)c4ccc(c(Cl)c4)O3)c3ccc(O)c(c3)-c3c(O)cc(O)cc3C(C(=O)O)NC2=O)C(OC2CC(C)(NCc3ccc(OCc4ccc(Cl)c(Cl)c4)cc3)C(O)C(C)O2)C(O)C1O (centres unmarked) [Compound 150] | 8 | 4 | 5.5 | 8 | 2
CNC(CC(C)C)C(=O)NC1C(=O)NC(CC(N)=O)C(=O)NC2C(=O)NC3C(=O)NC(C(=O)NC(C(=O)O)c4cc(O)cc(O)c4-c4cc3ccc4O)C(O)c3ccc(c(Cl)c3)Oc3cc2cc(c3OC2OC(CNC(=O)Cc3ccccc3)C(O)C(O)C2OC2CC(C)(NCc3ccc(OCc4ccc(Cl)c(Cl)c4)cc3)C(O)C(C)O2)Oc2ccc(cc2Cl)C1O (centres unmarked) [Compound 151] | 16 | 0.5 | 6.6 | 8 | 2
CNC(CC(C)C)C(=O)NC1C(=O)NC(CC(N)=O)C(=O)NC2C(=O)NC3C(=O)NC(C(=O)NC(C(=O)O)c4cc(O)cc(O)c4-c4cc3ccc4O)C(O)c3ccc(c(Cl)c3)Oc3cc2cc(c3OC2OC(CNCc3ccccc3Cl)C(O)C(O)C2OC2CC(C)(NCc3ccc(OCc4ccc(Cl)c(Cl)c4)cc3)C(O)C(C)O2)Oc2ccc(cc2Cl)C1O (centres unmarked) [Compound 153] | 16 | 0.12 | 7.0 | 8 | 4
CNC(CC(C)C)C(=O)NC1C(=O)NC(CC(N)=O)C(=O)NC2C(=O)NC3C(=O)NC(C(=O)NC(C(=O)O)c4cc(O)cc(O)c4-c4cc3ccc4O)C(O)c3ccc(c(Cl)c3)Oc3cc2cc(c3OC2OC(CNCC3CCNCC3)C(O)C(O)C2OC2CC(C)(NCc3ccc(OCc4ccc(Cl)c(Cl)c4)cc3)C(O)C(C)O2)Oc2ccc(cc2Cl)C1O (centres unmarked) [Compound 155] | 16 | 1 | 9.3 | 16 | 4
CNC(CC(C)C)C(=O)NC1C(=O)NC(CC(N)=O)C(=O)NC2C(=O)NC3C(=O)NC(C(=O)NC(C(=O)O)c4cc(O)cc(O)c4-c4cc3ccc4O)C(O)c3ccc(c(Cl)c3)Oc3cc2cc(c3OC2OC(CNCC3CCCCO3)C(O)C(O)C2OC2CC(C)(NCc3ccc(OCc4ccc(Cl)c(Cl)c4)cc3)C(O)C(C)O2)Oc2ccc(cc2Cl)C1O (centres unmarked) [Compound 156] | 16 | 4 | 9.5 | 16 | 2
CNC(CC(C)C)C(=O)NC1C(=O)NC(CC(N)=O)C(=O)NC2C(=O)NC3C(=O)NC(C(=O)NC(C(=O)O)c4cc(O)cc(O)c4-c4cc3ccc4O)C(O)c3ccc(c(Cl)c3)Oc3cc2cc(c3OC2OC(CNCCC#N)C(O)C(O)C2OC2CC(C)(NCc3ccc(OCc4ccc(Cl)c(Cl)c4)cc3)C(O)C(C)O2)Oc2ccc(cc2Cl)C1O (centres unmarked) [Compound 157] | 16 | 4 | 10.0 | 16 | 4
CNC(CC(C)C)C(=O)NC1C(=O)NC(CC(N)=O)C(=O)NC2C(=O)NC3C(=O)NC(C(=O)NC(C(=O)O)c4cc(O)cc(O)c4-c4cc3ccc4O)C(O)c3ccc(c(Cl)c3)Oc3cc2cc(c3OC2OC(CNCc3ccc(Cl)c(Cl)c3)C(O)C(O)C2OC2CC(C)(NCc3ccc(OCc4ccc(Cl)c(Cl)c4)cc3)C(O)C(C)O2)Oc2ccc(cc2Cl)C1O (centres unmarked) [Compound 158] | 16 | 4 | 10.0 | 16 | 4
CNC(CC(C)C)C(=O)NC1C(=O)NC(CC(N)=O)C(=O)NC2C(=O)NC3C(=O)NC(C(=O)NC(C(=O)O)c4cc(O)cc(O)c4-c4cc3ccc4O)C(O)c3ccc(c(Cl)c3)Oc3cc2cc(c3OC2OC(CNCC(C)C)C(O)C(O)C2OC2CC(C)(NCc3ccc(OCc4ccc(Cl)c(Cl)c4)cc3)C(O)C(C)O2)Oc2ccc(cc2Cl)C1O (centres unmarked) [Compound 159] | 16 | 4 | 10.0 | 16 | 4
CNC(CC(C)C)C(=O)NC1C(=O)NC(CC(N)=O)C(=O)NC2C(=O)NC3C(=O)NC(C(=O)NC(C(=O)O)c4cc(O)cc(O)c4-c4cc3ccc4O)C(O)c3ccc(c(Cl)c3)Oc3cc2cc(c3OC2OC(CNCCCN3CCCC3)C(O)C(O)C2OC2CC(C)(NCc3ccc(OCc4ccc(Cl)c(Cl)c4)cc3)C(O)C(C)O2)Oc2ccc(cc2Cl)C1O (centres unmarked) [Compound 160] | 16 | 16 | 13.0 | 16 | 4
